According to US20100247606A1, “INTRAOCULAR SUSTAINED RELEASE DRUG DELIVERY SYSTEMS AND METHODS FOR TREATING OCULAR CONDITIONS” (ALLERGAN, INC., priority 2009, published 2010):

How the values were obtained:
[1] = tested on: dog eye intraocular pressure (IOP); assay: Percent change from baseline IOP after intraocular administration in Beagle dogs; assay type: in vivo; details: for IOP reduction maintained through: compared to fellow eye
Protocol: Examples 3 to 7 below set forth in vivo (Beagle dogs) studies carried out by intraocular injection of microspheres or implant, suspended in aqueous vehicle (2% carboxy methylcellulose [CMC], 0.1% Tween 80 in 0.9% saline) or in a high viscosity, high shear rate gel (i.e. a suitable high molecular weight, polymeric hyaluronic acid). Microspheres or implant containing an anti-hypertensive agent was injected in one eye and placebo microspheres or implant was injected in the other eye as a control. IOP and hyperemia were monitored for multiweek periods. Ultra thin wall 25-27 gauge needles were used. When microspheres were used they were suspended in vehicle at 10% or 20% by weight.

dog eye = assay: Hyperemia and ocular tolerability after intraocular administration in Beagle dogs; assay type: in vivo
Protocol: Microspheres or implant containing an anti-hypertensive agent was injected in one eye and placebo microspheres or implant was injected in the other eye as a control. IOP and hyperemia were monitored for multiweek periods. Ultra thin wall 25-27 gauge needles were used. When microspheres were used they were suspended in vehicle at 10% or 20% by weight.

[2] = anterior intravitreal administration, dog

## CCCCC[C@H](O)c1ccc(N2C(=O)CC[C@@H]2COCc2ccc(C(=O)OC(C)C)s2)cc1 [Compound A, 5-{(R)-1-[4-((S)-1-Hydroxy-hexyl)-phenyl]-5-oxo-pyrrolidin-2-ylmethoxymethyl}-thiophene-2-carboxylic acid isopropyl ester]
[1]; 50 microliter anterior vitreous injection
  IOP reduction maintained through: 3 days
[1]; 50 microliter intracameral injection, 0.1% in normal saline
  maximum IOP reduction from baseline: about 50%
[1]; 50 microliter intracameral injection
  IOP reduction maintained through: 3 days
[1]; [2]
  maximum IOP reduction below baseline: about 30%
Dog eye; [2]
  conjunctival hyperemia: mild conjunctival hyperemia through day 3
Dog eye; anterior vitreous injection
  ocular inflammation at follow up examinations: no signs of ocular inflammation
Dog eye; intracameral injection
  ocular inflammation at follow up examinations: no signs of ocular inflammation
Dog eye; intracameral, after the first day
  subsequent conjunctival hyperemia recordings: 0
Dog eye; intracameral, near the site of injection, first day
  maximum conjunctival hyperemia score: +0.5
Dog eye; neat injections in the anterior chamber and anterior vitreous
  tolerability: well tolerated
